According to patent US20260335298A1, “PHARMACEUTICAL COMBINATION CONTAINING DONEPEZIL AND RIVASTIGMINE FOR PREVENTING, ALLEVIATING OR TREATING DEMENTIA OR COGNITIVE IMPAIRMENT, AND PREPARATION METHOD THEREFOR” (G2GBIO, INC., priority 2022, published 2026):

How the values were obtained:
[1] = test system: AChE mRNA (SH-SY5Y cells); assay: AChE mRNA expression in SH-SY5Y cell line (qRT-PCR, FIGS. 2 to 4); format: cell-based, human
Experimental: Specifically, the SH-SY5Y cell line was cultured in a 6-well plate (6×10^5/well) using high-glucose Dulbecco's modified Eagle medium (DMEM) added with 10% fetal bovine serum and penicillin-streptomycin. SH-SY5Y cells were treated with the donepezil at final concentrations of 10, 20, 30, 40 (15.2 μg/ml) μM, or the rivastigmine at 0.01, 0.1, 0.5, 1, 5 (1.25 μg/ml) μM and cultured for 24 hours, and then, a total RNA was extracted from each cell using TRIzol, and cDNA was synthesized using a SuperScriptIII cDNA synthesis kit. Quantitative real-time PCR (qRT-PCR) was performed using the synthesized cDNA and primers and SYBR Green in Table 3 below using QuantStudio 3. In order to confirm amplification and accumulation of a target gene in real time, the qRT-PCR was performed under a condition that a cycle of 95° C. for 15 seconds and 60° C. for 1 minute was reacted 40 times after an initial denaturation reaction was performed at 50° C. for 2 minutes and 95° C. for 10 minutes.
A gene expression level amplified by the Comparative Ct Method which is one of methods for quantifying a specific gene expression level was calculated, and analysis results are shown in FIGS. 2 to 4.
[Relational Expression of AChE mRNA Expression Level Analysis for Each Sample]
ΔCt value=Ct value of AChE in each sample−Ct value of reference gene (GAPDH) in the sample.
(Here, Ct refers to a cycle number in which amplification begins to increase clearly during a PCR process.)
Specifically, the SH-SY5Y cell line was cultured in a 6-well plate (6×10^5/well) using DMEM added with 10% fetal bovine serum and penicillin-streptomycin. Gene expression comparative analysis was performed by treating the SH-SY5Y cells with donepezil alone or with donepezil and rivastigmine in combination and performing qRT-PCR as in the previous experiment method.
Specifically, the gene expression comparative analysis was performed by treating the SH-SY5Y cells with donepezil 20 μM alone and with donepezil 20 μM and rivastigmine 0.1, 0.5, 1, and 5 μM as a final concentration in combination and performing qRT-PCR as in the previous experiment method.

AChE mRNA (APP-H4 cells) = assay: AChE mRNA expression in APP-H4 cell line (qRT-PCR, FIGS. 5 and 6); format: cell-based, human; settings: 24 h
Excerpt: An APP-H4 cell line is known as a dementia model cell line in which an abnormal segment of Amyloid Precursor Protein (APP) is increased by β-secretase and Alzheimer's disease and hyperphosphorylation of a Tau protein are induced by introducing a Swedish mutation of APP into human neuroglioblastoma H4 cells. In order to re-verify the effect of combined administration of the donepezil and the rivastigmine on the AChE mRNA expression and the drug combination ratio confirmed through a previous study, APP-H4 cells were treated with the donepezil and the rivastigmine alone or in combination as active ingredients, and the AChE gene expression was analyzed.
Specifically, the APP-H4 cell line was cultured in DMEM including 10% fetal bovine serum and gentamycine. Gene expression comparative analysis was performed by treating cells with donepezil 50 (19 μg/ml) μM alone or with donepezil 50 μM and rivastigmine 1 or 5 (1.25 μg/ml) μM as a final concentration in combination and performing qRT-PCR as in the previous experiment method (primers are shown in Table 4 below).
APP-H4 cells were treated with the donepezil and the rivastigmine alone or in combination and cultured for 24 hours, and then the AChE mRNA expression level was measured by qRT-PCR method.

AChE = settings: patients taking donepezil in a long-term; cited from earlier work

SMILES | AChE mRNA expression ([1]; 5 μM (1.9 μg/ml) donepezil alone, FIG. 3) | AChE mRNA expression ([1]; donepezil alone, beyond 20 μM (30, 40 μM), 24 h, FIG. 2) | AChE mRNA expression ([1]; donepezil alone, up to 20 μM, 24 h, FIG. 2) | AChE expression (AChE mRNA (APP-H4 cells); 50 μM donepezil, FIG. 6) | AChE activity and quantity (AChE) | AChE mRNA expression ([1]; rivastigmine alone, 0.01 to 5 μM, 24 h, FIG. 2) | AChE mRNA expression (AChE mRNA (APP-H4 cells); rivastigmine alone, 0.5, 1, or 10 μM, FIG. 5)
COc1cc2c(cc1OC)C(=O)C(CC1CCN(Cc3ccccc3)CC1)C2 (stereo not shown) [donepezil] | increased | no difference | dependently increased | increased | increases | – | –
CCN(C)C(=O)Oc1cccc([C@H](C)N(C)C)c1 [rivastigmine] | – | – | – | – | – | no statistically significant change was observed | no effect
